Data published in article PMC5075098, “Preclinical Evaluation of the Stability, Safety, and Efficacy of CD101, a Novel Echinocandin” (Antimicrobial Agents and Chemotherapy, 2016).
In brackets after ≈: the same amount, converted by molar mass. Like-named read-outs stand apart in the source and are kept apart here. Starred links: 1 amine or outer side, 2 acyl side, 3 side chain; linkers in the order of their positions; H or OH if unused. Positions of bridges follow the written chain, without caps; N, C: chain ends. Non-standard residues stand in square brackets, D forms with d. Residues, ends and D or L forms follow the SMILES beside them. *: point of attachment. pTerphenylCO(4''-OnC5H11) = CCCCCOc1ccc(-c2ccc(-c3ccc(C(=O)*)cc3)cc2)cc1; Orn(4R-OH,5R-OH) = O=C([C@H](C[C@@H](O)[C@@H](O)N[*:3])N[*:1])[*:2]; hTyr(3S-OH,4S-OH) = N[C@H](C(=O)O)[C@H](O)[C@@H](O)c1ccc(O)cc1; Pro(3S-OH,4S-Me) = C[C@H]1CN[C@H](C(=O)O)[C@H]1O; Hyp = O=C(O)[C@@H]1C[C@@H](O)CN1

Assays:
C. albicans R303 [1] = test: microbe, parasite or virus in culture; conditions: Candida albicans, R303, 24 h
Procedure: (§1) Enumeration of MIC and MEC assay inoculum viable counts was performed by plating aliquots of the starting assay inoculum on Sabouraud dextrose agar.

C. albicans R303 [2] = test: Neutropenic mouse model of C. albicans infection, kidney colony counts
Procedure: Immunosuppression was induced by two intraperitoneal (i.p.) injections of cyclophosphamide at 150 mg/kg 4 days before and 100 mg/kg 1 day before inoculation. […] The animals in the fluconazole group were sacrificed 48 h after infection.

[3] = Plasma protein binding, ultracentrifugation; type: in vitro ADME; conditions: human, ∼500,000 × g 2.5 h at 37°C, LC-MS/MS, SEM, read-out: % of protein bound (SEM) (converted)
Procedure: Ultracentrifugation ([15]) was used to compare human plasma protein binding of CD101 and anidulafungin. […] Following ultracentrifugation, the supernatant was transferred to a microtiter plate containing 50 μl plasma for matrix-matching purposes and quenched with 400 μl of cold acetonitrile (ACN) with 0.1% formic acid containing diclofenac as an internal standard. Quenched samples were centrifuged for 5 min at 10°C (e.g., 3,100 rpm [2,000 × g]) to sediment the precipitated proteins, and 50 μl supernatant was transferred to a microtiter plate containing 100 μl of water prior to analysis by LC-MS/MS. The percentage bound was the difference between 100% and the percentage free (the ratio of the concentration in supernatant to the total concentration).

[4] = 2-week repeat-dose toxicity and hepatotoxicity screening; type: in vivo, Sprague-Dawley rats
Procedure: Dosing solutions were prepared in a vehicle comprising 5% mannitol containing 2.5% polysorbate 80 (Tween 80) in 0.3% acetic acid.
Animals were randomly assigned to dose groups and stratified by weight to achieve similar group mean body weights (males, 255 to 318 g; females, 192 to 215 g). Blood, urine, and liver samples (excised and preserved in 10% neutral buffered formalin) were obtained on day 15. Plasma liver enzyme levels were assessed. Liver tissues were processed to paraffin blocks and prepared for slides. Slides were stained with hematoxylin and eosin. Hematology data were collected using the Advia 120 hematology analyzer. Coagulation data were collected using the Diagnostica STA compact coagulation analyzer. Clinical chemistry data were collected using the AU400 chemistry analyzer. Qualitative and quantitative urinalysis was recorded using iRICELL 1500 UA analyzer. Clinical effects were assessed for determination of the maximum tolerated dose (MTD).
Statistical evaluations were performed on in-life and clinical pathology numerical data to determine statistical significance following a decision tree. First, the homogeneity of the data was determined by Bartlett's test. If the data were homogeneous, a one-way analysis of variance was performed to assess statistical significance. If statistically significant differences between the means were found, Dunnett's test was used to determine the degree of significance from the control means (P < 0.05, P < 0.01, and P < 0.001). If the data were nonhomogeneous, the Kruskal-Wallis nonparametric analysis was performed to assess statistical significance. If statistically significant differences between the means were found (P < 0.05, P < 0.01, and P < 0.001), the Mann-Whitney U test was used to determine the degree of significance from the control means (P < 0.05, P < 0.01, and P < 0.001).

[5] = Reactive metabolite screening (glutathione trapping); type: in vitro ADME; conditions: PBS pH 7.4, excess GSH, 37°C, LC with high-resolution MS
Procedure: Samples were diluted to 10 μg/ml into 50:50 acetonitrile-water with 0.1 formic acid. Samples were analyzed by LC (Agilent 1100) with high-resolution MS (Waters quadrupole time of flight [Q-TOF] Premier mass spectrometer with electrospray interface) with concurrent low- and high-energy scans to obtain full-scan parent and product fragment ions. The analytical column was a Phenomenex Kinetex (2.6-μm C18, 100 by 3.0 mm). Waters MassLynx 4.1 software was used for data analysis.

C. albicans R303 [6] = conditions: CLSI broth microdilution, read after 24 h at 35°C, prominent growth inhibition (∼50%)
Procedure: as §1

[7] = after 44 h; cited from earlier work
Description: CD101, a novel echinocandin being developed as a high-exposure, once-weekly intravenous (i.v.) formulation for the treatment and prevention of systemic fungal infections, was designed to be chemically and metabolically stable to avoid hepatotoxicity while retaining the antifungal activity of an echinocandin.

[8] = system: A. fumigatus (ATCC 13073); test: MEC/MIC, CLSI broth microdilution; conditions: 24 h at 35°C, rounded/compact hyphal morphology
Procedure: as §1

[9] = system: A. fumigatus (ATCC 13073); test: Neutropenic mouse model of A. fumigatus infection, survival; conditions: BID for 5 days; CD101 all dose groups and anidulafungin 1 and 5 mg/kg i.v. (P < 0.05); amphotericin B 0.3 mg/kg i.p.
Procedure: Animals were immunosuppressed by three i.p. injections of cyclophosphamide (the first injection at 6 mg/mouse 3 days before inoculation and the second and third injections at 2 mg/mouse on 1 and 4 days after inoculation). […] Dose administration started 1 and 7 h after infection. […] An increase of 50% or more in the survival rate of the active groups compared to the vehicle group indicated significant antifungal efficacy.

[10] = anidulafungin 40 mg/kg/day i.v. 14 days, rats, relative to controls, P ≤ 0.001
[11] = anidulafungin 40 mg/kg/day i.v. 14 days, rats, P ≤ 0.001
[12] = anidulafungin 40 mg/kg/day i.v. 14 days, rats, P ≤ 0.01

OC(Cn1cncn1)(Cn1cncn1)c1ccc(F)cc1F [fluconazole, reference compound]
MIC (C. albicans R303 [1]): 2 µg/mL (≈ 6.53 µM)
reduction in CFU per gram of paired kidneys relative to vehicle (C. albicans R303 [2]; 20 mg/kg oral, 2 h after infection, 48 h): 87%
log reduction in CFU per gram relative to vehicle (C. albicans R303 [2]; 20 mg/kg oral, 48 h): 1.1 log

CCCCCOc1ccc(-c2ccc(-c3ccc(C(=O)N[C@H]4C[C@@H](O)[C@@H](O)NC(=O)[C@@H]5[C@@H](O)[C@@H](C)CN5C(=O)[C@H]([C@@H](C)O)NC(=O)[C@H]([C@H](O)[C@@H](O)c5ccc(O)cc5)NC(=O)[C@@H]5C[C@@H](O)CN5C(=O)[C@H]([C@@H](C)O)NC4=O)cc3)cc2)cc1 [anidulafungin] ({pTerphenylCO(4''-OnC5H11)}-[Orn(4R-OH,5R-OH)]T[Hyp][hTyr(3S-OH,4S-OH)]T[Pro(3S-OH,4S-Me)]; lactam 1-C)
fraction unbound ([3]; 1 μg/ml): 0.022
fraction unbound ([3]; 5 μg/ml): 0.014
repeat-dose systemic or target organ toxicity ([4]; 14-day i.v. infusion, rats, CD101 20 mg/kg/day, anidulafungin 40 mg/kg/day (comparable exposure)): severe hemolytic anemia and liver toxicity
spleen finding upon necropsy ([4]; anidulafungin 40 mg/kg/day i.v. 14 days, rats): dark and enlarged spleens
increase in mean alkaline phosphatase (ALP) [4, 10]: up to 47%
increase in mean aspartate aminotransferase (AST) [4, 10]: up to 68%
increase in total bilirubin [4, 10]: up to 2 fold
increase in mean alanine transaminase (ALT) ([4]; anidulafungin 40 mg/kg/day i.v. 14 days, rats, relative to controls, P ≤ 0.05): up to 27%
decrease in the albumin/globulin ratio [4, 11]: up to 15%
increases in platelets [4, 11]: up to 44%
increases in reticulocyte (polychromasia), neutrophil, and eosinophil counts [4, 11]: up to 4 fold
decreases in activated partial thromboplastin time [4, 12]: up to 23%
decreases in red blood cells (RBC), hemoglobin, and hematocrit [4, 12]: up to 19%
increases in globulin [4, 12]: up to 19%
increases in serum cholesterol [4, 12]: up to 52%
reduced body weights and food consumption, decrease relative to controls ([4]; anidulafungin 40 mg/kg/day i.v. infusion 14 days, rats, P ≤ 0.05): up to 9%
microscopic changes in the liver ([4]; day 15, H&E, CD101 2, 6, or 20 mg/kg/day, anidulafungin 40 mg/kg/day (some of the females)): minimal to moderate single-cell necrosis affecting the hepatocytes
GSH adduct formation (reactive intermediate) [5]: did form a GSH adduct
MIC (C. albicans R303 [6]): 0.03 µg/mL (≈ 0.0263 µM)
% remaining in human plasma [7]: 7%
MEC [8]: 0.004 µg/mL
10-day survival rate compared to the vehicle group [9]: significant increase
log reduction in CFU per gram relative to vehicle (C. albicans R303 [2]; 0.6 mg/kg single i.v. dose, 24, 48, 72 h): up to 2.7 log
antimicrobial effect (≥99%, 2-log reduction in CFU per gram) (C. albicans R303 [2]; anidulafungin 0.6 mg/kg i.v., at 24 and 48 h): significant

C[C@@H]1[C@H](O)[C@@H](C)/C=C/C=C/C=C/C=C/C=C/C=C/C=C/[C@H](O[C@@H]2O[C@H](C)[C@@H](O)[C@H](N)[C@@H]2O)C[C@@H]2O[C@](O)(C[C@@H](O)C[C@@H](O)[C@H](O)CC[C@@H](O)C[C@@H](O)CC(=O)O[C@H]1C)C[C@H](O)[C@H]2C(=O)O [amphotericin B, reference compound]
10-day survival rate compared to the vehicle group [9]: significant increase
